For one compound, Solubility results are on record in patent US11484579B2, “Vitamins and alpha keto acid compositions for use in a treatment program for chronic kidney disease patients” (priority 2017, dated 2022).

The series in a line: Certificate of analysis: solubility. The class given is physicochemical. Conditions: batch SCP-PAMA-03; specification: Soluble in water.

In the case of `O=C(Cc1ccccc1)C(=O)[O][Mg][O]C(=O)C(=O)Cc1ccccc1` [Alpha keto phenylalanine magnesium], the Solubility result is listed as “Soluble in water”.
